Patent US20210396743A1 (priority 2020, published 2021)
“Also recorded” adds a separate entry of the source. Read-outs that look alike come from different tables or passages of the source. Residues, ends and D or L forms follow the SMILES beside them.

Assays:
[1] = target: T1, SdeA181-1000 (Legionella pneumophila subsp. pneumophila, UniProt Q5ZTK4); assay type: biochemical, L. pneumophila
[2] = target: SdeA (Legionella pneumophila subsp. pneumophila, UniProt Q5ZTK4); conditions: cited from earlier work
Chain of SdeA (Legionella pneumophila subsp. pneumophila, UniProt Q5ZTK4) (Q5ZTK4 whole entry, looked up): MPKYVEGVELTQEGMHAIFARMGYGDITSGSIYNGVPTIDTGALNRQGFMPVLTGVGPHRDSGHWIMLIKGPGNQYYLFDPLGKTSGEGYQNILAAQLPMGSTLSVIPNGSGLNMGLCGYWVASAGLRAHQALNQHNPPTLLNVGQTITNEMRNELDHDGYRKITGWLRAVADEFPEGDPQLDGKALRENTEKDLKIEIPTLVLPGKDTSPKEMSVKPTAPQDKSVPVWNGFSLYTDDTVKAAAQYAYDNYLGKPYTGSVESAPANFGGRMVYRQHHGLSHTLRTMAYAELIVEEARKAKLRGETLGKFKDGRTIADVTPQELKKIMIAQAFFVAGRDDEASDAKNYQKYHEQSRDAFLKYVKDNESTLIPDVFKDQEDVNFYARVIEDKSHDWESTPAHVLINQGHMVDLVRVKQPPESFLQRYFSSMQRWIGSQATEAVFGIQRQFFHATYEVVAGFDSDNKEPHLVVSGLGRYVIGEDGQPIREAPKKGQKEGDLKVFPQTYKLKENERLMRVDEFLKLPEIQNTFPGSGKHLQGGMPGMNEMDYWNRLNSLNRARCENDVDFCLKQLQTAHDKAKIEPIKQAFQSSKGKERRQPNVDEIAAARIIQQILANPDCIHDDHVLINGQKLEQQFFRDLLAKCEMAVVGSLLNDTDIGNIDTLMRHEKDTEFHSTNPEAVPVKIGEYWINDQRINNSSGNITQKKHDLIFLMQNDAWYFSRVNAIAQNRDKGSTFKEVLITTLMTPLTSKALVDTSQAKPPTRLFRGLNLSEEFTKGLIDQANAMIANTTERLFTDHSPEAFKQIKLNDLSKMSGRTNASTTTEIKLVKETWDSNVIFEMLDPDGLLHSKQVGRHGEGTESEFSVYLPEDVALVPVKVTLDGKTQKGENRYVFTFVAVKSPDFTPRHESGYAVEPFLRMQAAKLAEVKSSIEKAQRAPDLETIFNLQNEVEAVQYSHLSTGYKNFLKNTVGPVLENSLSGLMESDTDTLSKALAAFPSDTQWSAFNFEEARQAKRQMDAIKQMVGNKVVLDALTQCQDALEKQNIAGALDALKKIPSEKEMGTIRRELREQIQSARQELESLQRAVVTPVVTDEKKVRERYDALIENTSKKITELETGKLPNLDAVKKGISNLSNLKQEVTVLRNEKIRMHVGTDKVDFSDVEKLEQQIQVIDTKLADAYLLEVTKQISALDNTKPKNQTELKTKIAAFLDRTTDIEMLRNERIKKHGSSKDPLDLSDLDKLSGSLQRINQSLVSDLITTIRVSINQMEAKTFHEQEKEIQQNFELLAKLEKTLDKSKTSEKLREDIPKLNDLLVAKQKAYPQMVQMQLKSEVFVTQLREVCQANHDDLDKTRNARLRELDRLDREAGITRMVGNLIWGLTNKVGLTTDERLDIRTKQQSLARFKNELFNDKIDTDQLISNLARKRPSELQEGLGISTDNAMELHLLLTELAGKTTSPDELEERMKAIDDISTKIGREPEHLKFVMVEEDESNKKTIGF

[3] = system: SdeA; assay type: biochemical, L. pneumophila; conditions: 100 μM analogue, 100 μM ubiquitin, 0.5 μM enzyme, emission 410 nm
[4] = target: T1, SdeA181-1000; assay type: biochemical, L. pneumophila; remark: listed apart in the source
[5] = target: T1, SdeA181-1000; assay type: biochemical, L. pneumophila; remark: listed apart in the source

T1 sequence (Q5ZTK4 181-1000 limits assumed): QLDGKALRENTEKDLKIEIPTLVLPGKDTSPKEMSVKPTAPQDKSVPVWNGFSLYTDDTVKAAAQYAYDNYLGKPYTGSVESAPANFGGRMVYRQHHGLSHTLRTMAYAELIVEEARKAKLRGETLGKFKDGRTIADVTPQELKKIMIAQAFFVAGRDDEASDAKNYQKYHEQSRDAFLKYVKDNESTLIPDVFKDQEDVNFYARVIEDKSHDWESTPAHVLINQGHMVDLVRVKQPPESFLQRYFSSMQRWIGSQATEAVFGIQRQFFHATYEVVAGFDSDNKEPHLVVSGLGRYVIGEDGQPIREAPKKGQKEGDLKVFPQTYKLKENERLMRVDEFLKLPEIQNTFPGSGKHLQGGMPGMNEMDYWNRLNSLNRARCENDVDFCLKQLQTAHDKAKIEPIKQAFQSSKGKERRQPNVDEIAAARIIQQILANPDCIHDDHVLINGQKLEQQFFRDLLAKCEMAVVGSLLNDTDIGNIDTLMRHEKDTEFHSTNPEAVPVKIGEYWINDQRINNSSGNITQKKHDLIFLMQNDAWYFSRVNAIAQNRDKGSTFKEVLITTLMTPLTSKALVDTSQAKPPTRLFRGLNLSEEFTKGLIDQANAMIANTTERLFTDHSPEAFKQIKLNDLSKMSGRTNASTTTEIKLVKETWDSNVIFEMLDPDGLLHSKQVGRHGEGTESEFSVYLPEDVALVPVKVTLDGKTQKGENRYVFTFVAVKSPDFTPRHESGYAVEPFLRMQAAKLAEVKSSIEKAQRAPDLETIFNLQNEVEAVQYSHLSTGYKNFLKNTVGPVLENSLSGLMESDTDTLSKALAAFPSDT

Nc1ncnc2c1ncn2[C@@H]1O[C@H](COP(=O)(O)OP(=O)(O)OC[C@H]2OC(O)[C@H](O)[C@@H]2O)[C@@H](O)[C@H]1O (some centres unmarked) [ADP-ribose]
inhibition of peptide ubiquitination [1]: inhibition of peptide ubiquitination; also recorded: impairment of peptide ubiquitination

Nc1ncnc2c1ncn2[C@@H]1O[C@H](COP(=O)(O)O)[C@@H](O)[C@H]1O [AMP, adenosine monophosphate]
inhibition of peptide ubiquitination [1]: inhibition of peptide ubiquitination; also recorded: impairment of peptide ubiquitination | inhibitor of SdeA-catalyzed ubiquitination (previous study) [2]: weak inhibitor

NC(=O)c1ccc[n+]([C@@H]2O[C@H](COP(=O)(O)OP(=O)([O-])OC[C@H]3O[C@@H](c4snc5c(N)ncnc45)C(O)C3O)C(O)C2O)c1 (some centres unmarked) [N^tzAD^+]
fluorescence increase on incubation with SdeA and Ub ([3]; listed as NtzAD+): lower fold increase in fluorescence intensity

CSCC[C@H](NC(=O)c1ccc(-c2c3ccc(=O)cc-3oc3cc(O)ccc23)c(C(=O)O)c1)C(=O)N[C@@H](CO)C(=O)N[C@@H](CO)C(=O)N[C@@H](CCSC)C(=O)N[C@@H](CC(N)=O)C(=O)N1CCC[C@H]1C(=O)N[C@@H](CCC(=O)O)C(=O)N[C@@H](Cc1ccc(O)cc1)C(=O)N[C@@H](CC(=O)O)C(N)=O [peptide] (HELM PEPTIDE1{[O=C(O)c1cc(C(=O)[*:2])ccc1-c1c2ccc(=O)cc-2oc2cc(O)ccc12].M.S.S.M.N.P.E.Y.D.[am]}$$$$V2.0)
ubiquitination of peptide by SdeA (fluorescence polarization) [4]: significant increase in FP | Km ([4]; read-out: apparent KM): ~80 µM | in-gel fluorescence of ubiquitinated peptide (SDS-PAGE) [5]: presence of a fluorescent band around 10 kDa

NC(=O)c1ccc[n+]([C@@H]2O[C@H](COP(=O)([O-])OP(=O)([O-])OC[C@H]3O[C@@H](n4cnc5c4nc[n+]4cc[nH]c54)C(O)[C@H]3O)[C@H](O)C2O)c1 (some centres unmarked) [εNAD^+, nicotinamide 1,N6-ethenoadenine dinucleotide]
fluorescence increase on incubation with SdeA and Ub [3]: increase in fluorescence emission at 410 nm
